US6479487B1, “6, 9-disubstituted 2-[trans-(4-aminocyclohexyl)amino] purines” (Aventis Pharmaceuticals Inc., priority 1998, dated 2002)
Where “and” joins values, the source holds several entries; their conditions need not be identical. Equal values may be shown once. Where a name gives a salt, the structure may show the parent alone. Read-outs that look alike come from different tables or passages of the source.

Columns and labels:
[1] = target: T1, cdk2/cyclin E (Homo sapiens, UniProt P24941); experiment: Cyclin-Dependent Kinase 2 Assay (cdk2/cyclin E, GST-Rb substrate); format: biochemical; conditions: recombinant cdk2/cyclin E, 10 μM ATP, 30 min at 30° C., several values in a cell = separate determinations, read-out: CDK-2 Inhibition IC50
T1 construct: made in house; host or cells: insect cells (baculovirus co-infection)
Protocol: Substrate: GST-Rb as described above for cdk4/cyclin D1
Assay conditions for cdk2/cyclin E were identical to those for cdk4/cyclin D1 including the substrate. The concentration of recombinant cdk2/cyclin E in the assay was 0.1 μg per 100 μl assay. Incubation was for 30 min at 30° C.

[2] = target: T2, cdk4/cyclin D1 (Homo sapiens, UniProt P11802); experiment: Cyclin-dependent Kinase 4 Assay (cdk4/cyclin D1, GST-Rb substrate); format: biochemical; conditions: cdk4/cyclin D1 insect cell lysate, 10 μM ATP, 30 min at 37° C., several values = separate determinations, read-out: CDK4 Inhibition IC50
T2 construct: made in house; host or cells: Sf9 insect cells (Bac-to-Bac baculovirus, pFastBac)
T2 sequence (P11802 whole entry): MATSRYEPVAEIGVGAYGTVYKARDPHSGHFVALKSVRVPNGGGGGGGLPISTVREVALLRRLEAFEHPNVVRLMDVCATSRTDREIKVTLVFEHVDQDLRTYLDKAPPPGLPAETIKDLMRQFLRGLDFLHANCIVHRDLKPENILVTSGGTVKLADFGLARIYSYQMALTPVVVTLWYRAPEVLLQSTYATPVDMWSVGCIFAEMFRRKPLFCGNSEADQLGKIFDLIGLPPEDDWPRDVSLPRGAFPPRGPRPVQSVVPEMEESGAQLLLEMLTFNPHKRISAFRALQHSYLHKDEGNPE
T2 sequence (P24385 whole entry partner): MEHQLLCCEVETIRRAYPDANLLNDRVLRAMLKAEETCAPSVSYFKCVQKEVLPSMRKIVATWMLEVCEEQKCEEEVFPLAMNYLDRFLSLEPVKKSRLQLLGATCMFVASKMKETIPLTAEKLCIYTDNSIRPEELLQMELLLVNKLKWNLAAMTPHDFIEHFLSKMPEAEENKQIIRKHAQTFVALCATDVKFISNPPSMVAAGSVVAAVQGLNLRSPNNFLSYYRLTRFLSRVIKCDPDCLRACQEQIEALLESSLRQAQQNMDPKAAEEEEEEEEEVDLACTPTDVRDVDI
Outline: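 Insect-cell lysate of coexpressed cdk4/cyclin D1 (0.1 μg) acts on GST-Rb (0.5 μg) bound to glutathione-Sepharose, in 50 mM HEPES pH 7.5, 10 mM MgCl2, 1 mM EGTA. Reaction runs 30 min at 37 °C, then is stopped by filtration and TNEN washes. Rb phosphorylation read by scintillation counting; IC50 derived.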

[3] = system: MDA-MB-231; experiment: In vitro tumor cell proliferation, MDA-MB-231; format: cell-based, human; conditions: sulforhodamine B or CyQUANT assay, many values given with an undefined *, read-out: In vitro Tumor Cell Proliferation (IC50, μM) Breast MDA-MB-231
Outline: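 Cells plated overnight at 37 °C, then exposed to drug for 3 days, refed with fresh drug and incubated 4 more days. Read-out by sulforhodamine B staining after TCA fixation; alternatively, CyQUANT after 3-day drug exposure and freezing at −80 °C.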

[4] = system: MDA-MB-435; experiment: In vitro tumor cell proliferation, MDA-MB-435; format: cell-based; conditions: values given with an undefined *, read-out: In vitro Tumor Cell Proliferation (IC50, μM) Breast MDA-MB-435
Outline: (§1)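 Cells seeded overnight at 37° C, then exposed to drug diluted in medium; at 3 days medium and drug replenished for another 4 days. Growth read by sulforhodamine B staining after TCA fixation; alternatively by CyQUANT, with plates frozen at −80° C after 3 days of drug.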

[5] = system: HT-29; experiment: In vitro tumor cell proliferation, HT-29; format: cell-based, human; conditions: many values given with an undefined *, read-out: In vitro Tumor Cell Proliferation (IC50, μM) Colon HT-29
Outline: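 HT-29 cells seeded overnight at 37° C, then exposed to drug for 3 days, refed with fresh drug-containing medium for 4 more days. Proliferation read by sulforhodamine B staining after TCA fixation; alternatively by CyQUANT after freezing plates at −80° C following 3 days' drug exposure.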

[6] = system: Colo-205; experiment: In vitro tumor cell proliferation, Colo-205; format: cell-based; conditions: values given with an undefined *, read-out: In vitro Tumor Cell Proliferation (IC50, μM) Colon Colo-205
Outline: as §1

[7] = system: A549; experiment: In vitro tumor cell proliferation, A549; format: cell-based, human; conditions: many values given with an undefined *, read-out: In vitro Tumor Cell Proliferation (IC50, μM) Lung A549
Outline: as §1

[8] = system: DMS-114; experiment: In vitro tumor cell proliferation, DMS-114; format: cell-based, human; conditions: many values given with an undefined *, read-out: In vitro Tumor Cell Proliferation (IC50, μM) Lung DMS-114
Outline: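 Human small cell lung carcinoma DMS-114 cells plated overnight, then drug-treated for 3 days, medium and drug renewed, and incubated 4 more days. Growth read by sulforhodamine B staining after TCA fixation; alternatively by CyQUANT after 3 days' drug exposure and freezing at −80 °C.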

[9] = system: PC-3; experiment: In vitro tumor cell proliferation, PC-3; format: cell-based, human; conditions: many values given with an undefined *, read-out: In vitro Tumor Cell Proliferation (IC50, μM) Prostate PC-3
Outline: as §1

[10] = system: DU145; experiment: In vitro tumor cell proliferation, DU145; format: cell-based, human; conditions: many values given with an undefined *, read-out: In vitro Tumor Cell Proliferation (IC50, μM) Prostate DU145
Outline: as §1

[11] = Homo sapiens, MDA-MB-231, MDA-MB-231
[12] = Homo sapiens, COLO 205, Colo-205
[13] = Homo sapiens, MDA-MB-435, MDA-MB-435

IC50 [1]	IC50 [2]	IC50 [3, 11]	IC50 ([3]; MDA-MB-231, dihydrochloride)	IC50 ([4]; MDA-MB-435, dihydrochloride)	IC50 ([5]; HT-29, dihydrochloride)	IC50 ([5]; Homo sapiens, HT-29, HT-29)	IC50 ([6]; Colo-205, dihydrochloride)	IC50 [6, 12]	IC50 ([7]; A549, dihydrochloride)	IC50 ([7]; Homo sapiens, A549, A549)	IC50 ([8]; DMS-114, dihydrochloride)	IC50 ([8]; Homo sapiens, DMS-114, DMS-114)	IC50 ([9]; Homo sapiens, PC-3, PC-3)	IC50 ([10]; DU145, dihydrochloride)	IC50 ([10]; Homo sapiens, DU-145, DU145)	IC50 [4, 13]	IC50 ([9]; PC-3, dihydrochloride)	SMILES	also measured
100 nM	8900 nM and 5800 nM	5 µM	6.7 µM	10 µM	7.8 µM	6.5 µM	5.2 µM	6.5 µM	3.4 µM	4.5 µM	4.9 µM	6.8 µM	3.6 µM	4.7 µM	4.6 µM	–	–	N[C@H]1CC[C@H](Nc2nc(NNc3ccccc3F)c3ncn(C4CCCC4)c3n2)CC1 [Example 11, 2-[Trans-(4-aminocyclohexyl)amino]-6-[2-fluorophenylhydrazino]-9-cyclopentylpurine dihydrochloride]	–
82 nM and 80 nM	230 nM and 970 nM	1.3 µM	–	2.3 µM	1.7 µM	1.6 µM	1.1 µM	1.2 µM	1 µM	0.6 µM	0.7 µM	1.1 µM	1.3 µM	0.9 µM	0.7 µM	1.9 µM	0.7 µM	N[C@H]1CC[C@H](Nc2nc(Nc3cccc(F)c3)c3ncn(C4CCCC4)c3n2)CC1 [Example 21, 2-[Trans-(4-aminocyclohexyl)amino]-6-(3-fluorophenylamino)-9-cyclopentylpurine dihydrochloride]	–
2000 nM and 950 nM and 760 nM	4000 nM	2.7 µM	2.6 µM and 2.5 µM	3.5 µM and 3 µM and 3.3 µM	2.4 µM and 2.3 µM	2.5 µM	2.8 µM and 2.7 µM	2.9 µM	2.5 µM	2.3 µM	2.1 µM	2.6 µM	3.1 µM	3.2 µM and 3 µM	3.1 µM	3.1 µM	2.7 µM and 2.5 µM and 2.2 µM	CCCCCc1ccc(Nc2nc(N[C@H]3CC[C@H](N)CC3)nc3c2ncn3C2CCCC2)cc1 [Example 23, 2-[Trans-(4-aminocyclohexyl)amino]-6-[(4-pentyl)phenylamino]-9-cyclopentylpurine dihydrochloride]	–
11 nM and 40 nM	1000 nM and 710 nM	4.2 µM	3.6 µM	6 µM	4.2 µM	4.4 µM	4.6 µM	2.8 µM	2.6 µM	2.9 µM	3.3 µM	2.6 µM	3.2 µM	2.9 µM	3 µM	5.9 µM	3.5 µM	COCCCCNc1nc(N[C@H]2CC[C@H](N)CC2)nc2c1ncn2C1CCCC1 [Example 29, 2-[Trans-(4-aminocyclohexyl)amino]-6-(4-methoxybutylamino)-9-cyclopentylpurine dihydrochloride]	–
190 nM and 140 nM	410 nM	0.17 µM	–	–	–	0.19 µM	–	0.18 µM	–	0.12 µM	–	0.19 µM	0.2 µM	–	0.15 µM	0.26 µM	–	N[C@H]1CC[C@H](Nc2nc(NC3CCN(Cc4ccccc4)CC3)c3ncn(C4CCCC4)c3n2)CC1 [Example 33, 2-[Trans-(4-aminocyclohexyl)amino]-6-[4-(1-benzyl)piperidinylamino]-9-cyclopentylpurine trihydrochloride]	IC50 ([3]; MDA-MB-231, trihydrochloride): 0.21 µM; IC50 ([4]; MDA-MB-435, trihydrochloride): 0.28 µM; IC50 ([5]; HT-29, trihydrochloride): 0.21 µM; IC50 ([8]; DMS-114, trihydrochloride): 0.13 µM; IC50 ([9]; PC-3, trihydrochloride): 0.18 µM
520 nM	4500 nM	3.2 µM	–	2.2 µM	–	4 µM	–	3.1 µM	3.1 µM	5.6 µM	3.1 µM	3.6 µM	3.1 µM	3.4 µM	5.4 µM	4.2 µM	3.8 µM	CCCCCCCCCCCCNc1nc(N[C@H]2CC[C@H](N)CC2)nc2c1ncn2C1CCCC1 [Example 36, 2-[Trans-(4-aminocyclohexyl)amino]-6-(dodecylamino)-9-cyclopentylpurine dihydrochloride]	–
690 nM	5200 nM	3 µM	–	3.2 µM and 2.7 µM	1.8 µM and 2.5 µM	3.2 µM	1.6 µM and 1.3 µM	1.7 µM	–	1.3 µM	1.7 µM and 1.5 µM	1.3 µM	2.3 µM	2.6 µM and 3 µM	2.7 µM	3.4 µM	2.8 µM and 2.5 µM	COc1ccc(CNc2nc(N[C@H]3CC[C@H](N)CC3)nc3c2ncn3C(C)C)cc1 [Example 37, 2-[Trans-(4-aminocyclohexyl)amino]-6-[(4-methoxybenzyl)amino]-9-(2-propyl)purine dihydrochloride]	–
200 nM and 150 nM	1000 nM and 1200 nM and 2000 nM	0.24 µM	–	–	–	0.25 µM	–	0.19 µM	–	0.16 µM	–	0.27 µM	0.21 µM	–	0.22 µM	0.37 µM	–	N[C@H]1CC[C@H](Nc2nc(NC3CCN(Cc4cccc(Cl)c4)CC3)c3ncn(C4CCCC4)c3n2)CC1 [Example 42, 2-[Trans-(4-aminocyclohexyl)amino]-6-[4-(1-(3-chlorobenzyl))piperidinylamino]-9-cyclopentylpurine]	IC50 ([3]; MDA-MB-231): 0.3 µM; IC50 ([4]; MDA-MB-435): 0.44 µM; IC50 ([5]; HT-29): 0.28 µM; IC50 ([7]; A549): 0.14 µM; IC50 ([8]; DMS-114): 0.2 µM; IC50 ([9]; PC-3): 0.34 µM; IC50 ([10]; DU145): 0.23 µM
